The values below come from patent publication US20080214845A1, “ANTIBACTERIAL 6'-MODIFIED 4,5-SUBSTITUTED AMINOGLYCOSIDE ANALOGS” (priority 2005, published 2008).

The subject of experiment [1] is Staphylococcus aureus (Smith strain ATCC 13709). Briefly: Staphylococcus aureus mouse protection assay. Type of experiment: in vivo. Conditions: Staph conc. 10^6 IP in 10% mucin, treatments at 1 hour and 3 hour post infection. The procedure:
Two of the novel aminoglycoside compounds of the invention were examined for their anitbacterial activity against staphylococcus aureus. The mice were infected IP with 0.5 ml […] staphylococcus aureus in 10% mucin. There were 10 mice in each treated group with treatments at 1 hour and 3 hour post infection. The Ibis compounds (IBIS00561085 R4═R5═CH3 and IBIS00561141 R4═H, R5═(CH2)2C6H5) were used at 75 mg/kg, 37.5 mg/kg, 18.8 mg/kg, 9.4 mg/kg, 4.7 mg/kg, 2.3 mg/kg, 1.17 mg/kg and 0.5 mg/kg. Amakacin, Paromomycin and Neomycin were used as the positive controls at concentration of 2 mg/kg, 1 mg/kg and 0.5 mg/kg.

A further experiment deals with 18S. Briefly: 18S Kd by FTICR mass spectrometry. The format is binding. The procedure:
(§1) Was performed according to the published report; […]-Lowery, […].; Mohan, […]. et al. Characterization of Low Affinity Complexes Between RNA and Small Molecules Using Electrospray Ionization Mass Spectrometry. J. Am. Chem. […] Screening is performed by measuring the formation of non-covalent complexes between a single ligand or ligand mixture and the appropriate RNA target, along with suitable control structured RNA target(s) simultaneously using a 9.4 T FT-ICR mass spectrometer as detector. Full experimental details of the assay have been described in related literature ([…]-Lowery, et al. in TrAC, Trends Anal. […] The abundances were integrated from the respective ions for free RNA and the ligand-RNA complex. […] The peak ratios are measured at each concentration, then a plot of complex/free RNA versus concentration of ligand added is fitted to a second (or higher) order binding polynomial to determine the KD.

In another experiment the target is 16S. Briefly: Measurement of 16S Kd by FTICR mass spectrometry. Type of experiment: binding. The procedure: as §1
Experiment [2] deals with E. coli S30 bacterial extract (pBest Luc luciferase transcription/translation). In words: Coupled bacterial transcription/translation assay (T/T). The following applies: luciferase reporter, 35 minutes at 37° C., read-out: Trans/Trans IC50. Type of experiment: biochemical. The procedure:
The DNA template, pBest Luc™ (Promega), is a plasmid containing a reporter gene for firefly luciferase fused to a strong tac promoter and ribosome binding site. Messenger RNA from 1 μg pBestLuc was transcribed and translated in E. coli S30 bacterial extract in the presence or absence of test compound. Compounds were tested in a black 96 well microtiter plate with an assay volume of […]. Each test well contained: 5 μL test compound, 13 μL S30 premix (Promega), 4 μL 10× complete amino acid mix (1 mM each), 5 μL E. coli S30 extract and 8 μL of 0.125 μg/μL pBest Luc™. The transcription/translation reaction was incubated for 35 minutes at 37° C. followed by detection of functional luciferase with the addition of 30 μL LucLite™ (Packard). Light output was quantitated on a Packard TopCount.

For a further experiment, the system named is E. Coli. In words: Minimum inhibitory concentration (MIC), E. coli. Conditions: range of concentration, 20-24 hours at 37° C., A595; for MIC: Escherichia coli. Type of experiment: cell-based. The procedure: (§2) The assays are carried out in 150 μL volume in duplicate in 96-well clear flat-bottom plates. The bacterial suspension from an overnight culture growth in appropriate medium is added to a solution of test compound in 2.5% DMSO in water. Final bacterial inoculum is approximately 10^2-10^3 CFU/well. The percentage growth of the bacteria in test wells relative to that observed for a control wells containing no compound is determined by measuring absorbance at 595 nm (A595) after 20-24 hours at 37° C. The MIC is determined as a range of concentration where complete inhibition of growth is observed at the higher concentration and bacterial cells are viable at the lower concentration. Both ampicillin and tetracycline are used as antibiotic positive controls in each screening assay.

For a further experiment, the system named is S. Aureus. In words: Minimum inhibitory concentration (MIC), S. aureus. The format is cell-based. Conditions: range of concentration, 20-24 hours at 37° C., A595; for MIC: Staphylococcus aureus. The procedure: as §2

Converted amounts (≈) assume the structure as drawn.

As to `NC[C@@H]1O[C@H](O[C@H]2[C@@H](O)[C@H](O[C@@H]3[C@@H](O)[C@H](N)C[C@H](N)[C@H]3O[C@H]3O[C@H](CO)[C@@H](O)[C@H](O)[C@H]3N)O[C@@H]2CO)[C@H](N)[C@@H](O)[C@@H]1O` [Paromomycin], the “# Dead mice/Total mice in group” value in experiment [1] (0.5 mg/kg) is 10/10 (10% Mucin); in experiment [1] (1 mg/kg), 10/10 (10% Mucin); in experiment [1] (2 mg/kg), 9/10 (10% Mucin).

As to `CC(C)NC[C@H]1O[C@H](O[C@H]2[C@H](O[C@@H]3O[C@H](CO)[C@@H](O[C@H]4O[C@@H](CN)[C@@H](O)[C@H](O)[C@H]4N)[C@H]3O)[C@@H](O)[C@H](N)C[C@@H]2N)[C@H](N)[C@@H](O)[C@@H]1O` [IBIS00561095], the Kd was 1200 nM at 18S and 1180 nM at 16S. Also, the IC50 in experiment [2] turned out to be 202 nM. In addition, in the experiment with E. Coli., the “MIC E. Coli.” value was in the range of 2.5 to 5.0 µM. Moreover, the “MIC S. Aureus” value against S. Aureus was in the range of 1.25 to 2.5 µM.

As to `NC[C@@H]1O[C@H](O[C@H]2[C@@H](O)[C@H](O[C@@H]3[C@@H](O)[C@H](N)C[C@H](N)[C@H]3O[C@H]3O[C@H](CN4CCOCC4)[C@@H](O)[C@H](O)[C@H]3N)O[C@@H]2CO)[C@H](N)[C@@H](O)[C@@H]1O` [IBIS00561142], the Kd at 18S is 3000 nM; on 16S it was 3640 nM. The IC50 in experiment [2] amounted to 349 nM. The values for the MIC in the experiment with E. Coli. and against S. Aureus were 20 to 40 µM (≈ 13.7 to 27.4 µg/mL) and 10 to 20 µM (≈ 6.85 to 13.7 µg/mL), respectively.

`NC[C@@H]1O[C@H](O[C@H]2[C@@H](O)[C@H](O[C@@H]3[C@@H](O)[C@H](N)C[C@H](N)[C@H]3O[C@H]3O[C@H](CNN)[C@@H](O)[C@H](O)[C@H]3N)O[C@@H]2CO)[C@H](N)[C@@H](O)[C@@H]1O` [IBIS00560187]: the results for the Kd at 18S and at 16S were 1660 nM and 564 nM, respectively. Besides, the IC50 in experiment [2] stood at 235 nM. The “MIC E. Coli.” value against E. Coli. is 12 to 25 µM. Moreover, the “MIC S. Aureus” value in the experiment with S. Aureus was 3 to 6 µM.

Consider `NCC[C@H](O)C(=O)N[C@@H]1C[C@H](N)[C@@H](O[C@H]2O[C@H](CN)[C@@H](O)[C@H](O)[C@H]2O)[C@H](O)[C@H]1O[C@H]1O[C@H](CO)[C@@H](O)[C@H](N)[C@H]1O` [Amikacin], for which the figures for the “# Dead mice/Total mice in group” value in experiment [1] (0.5 mg/kg), in experiment [1] (1 mg/kg) and in experiment [1] (2 mg/kg) were 8/10 (10% Mucin), 10/10 (10% Mucin) and 8/10 (10% Mucin), respectively.

Consider `NCCCNC[C@H]1O[C@H](O[C@H]2[C@H](O[C@@H]3O[C@H](CO)[C@@H](O[C@H]4O[C@@H](CN)[C@@H](O)[C@H](O)[C@H]4N)[C@H]3O)[C@@H](O)[C@H](N)C[C@@H]2N)[C@H](N)[C@@H](O)[C@@H]1O` [IBIS00561096], for which the Kd on 18S came to 1450 nM; at 16S, 1590 nM. Besides, the IC50 in experiment [2] is 175 nM. Also, in the experiment on E. Coli., the “MIC E. Coli.” value was in the range of 2.5 to 5.0 µM. Besides, the “MIC S. Aureus” value in the experiment on S. Aureus lay within 1.25 to 2.5 µM.

`NCCCCNC[C@H]1O[C@H](O[C@H]2[C@H](O[C@@H]3O[C@H](CO)[C@@H](O[C@H]4O[C@@H](CN)[C@@H](O)[C@H](O)[C@H]4N)[C@H]3O)[C@@H](O)[C@H](N)C[C@@H]2N)[C@H](N)[C@@H](O)[C@@H]1O` [IBIS00561140]: the Kd was found to be 6020 nM at 18S and 6260 nM on 16S. In experiment [2], the IC50 turned out to be 32 nM. For the same compound, the MIC is 2.5 to 5 µM (≈ 1.71 to 3.43 µg/mL) with E. Coli. and 10 to 20 µM (≈ 6.86 to 13.7 µg/mL) in the experiment with S. Aureus.

With Neomycin, the “# Dead mice/Total mice in group” value in experiment [1] (0.5 mg/kg) was 7/10 (10% Mucin); in experiment [1] (1 mg/kg) it was 10/10 (10% Mucin); in experiment [1] (2 mg/kg) it was 4/10 (10% Mucin).

On to `NC[C@@H]1O[C@H](O[C@H]2[C@@H](O)[C@H](O[C@@H]3[C@@H](O)[C@H](N)C[C@H](N)[C@H]3O[C@H]3O[C@H](CNCCc4ccc(C(F)(F)F)cc4)[C@@H](O)[C@H](O)[C@H]3N)O[C@@H]2CO)[C@H](N)[C@@H](O)[C@@H]1O` [IBIS00561942], for which the “MIC E. Coli.” value against E. Coli. was in the range of 1.25 to 2.5 µM. In addition, the “MIC S. Aureus” value against S. Aureus lay in the range of 0.31 to 0.62 µM.
